Measured values reported in patent publication US8470548B2, “Diagnosis of depression” (Intra-Cellular Therapies, Inc., priority 2006, dated 2013).
Where two headings read alike, the source gives them in different places.

Columns and labels:
5-HT1A receptor = target: T1, 5-HT1A receptor (Mus musculus, UniProt Q64264); assay: [35S]GTPγS binding in response to 5-HT1A receptor stimulation; assay type: biochemical, mice; conditions: 50 μM agonist
T1 construct: Fresh cryostat sections (12 μm) from wild-type, p11 KO and p11 transgenic mice; from tissue; host or cells: mouse brain cryostat sections
T1 sequence (Q64264 1-421): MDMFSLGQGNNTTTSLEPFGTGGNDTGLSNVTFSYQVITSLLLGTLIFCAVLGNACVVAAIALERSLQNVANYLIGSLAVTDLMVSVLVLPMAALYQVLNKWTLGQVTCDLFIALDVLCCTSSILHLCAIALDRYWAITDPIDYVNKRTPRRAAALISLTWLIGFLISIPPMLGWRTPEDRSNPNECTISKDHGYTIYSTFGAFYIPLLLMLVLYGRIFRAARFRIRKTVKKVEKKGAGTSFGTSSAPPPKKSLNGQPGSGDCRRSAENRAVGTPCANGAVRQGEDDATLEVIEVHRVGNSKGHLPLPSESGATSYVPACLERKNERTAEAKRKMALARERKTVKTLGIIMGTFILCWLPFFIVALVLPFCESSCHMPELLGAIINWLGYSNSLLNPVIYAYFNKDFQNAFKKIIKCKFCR
Procedure: (§1) Fresh cryostat sections (12 μm) from wild-type, p11 KO and p11 transgenic mice are preincubated for 30 min in Tris-HCl 50 mM (pH 7.4) supplemented with 100 mM NaCl, […] 3 mM MgCl2, 0.2 mM EGTA, 2 mM GDP and 1 U/ml adenosine deaminase to remove endogenous adenosine. The sections are thereafter incubated for two hours at 25° C. in the same solution containing 40 pM [^35S]GTP S, with (stimulation condition) or without (basal condition) 50 μM of the 5-HT1A receptor agonist, 8-OH-DPAT, or the 5-HT1B receptor agonist, anpirtoline. Non-specific labeling (background) is determined on autoradiographs from adjacent sections incubated with 10 μM of unlabeled GTP S. Sections are rinsed twice (3 min each) in 50 mM Tris-HCl buffer, once (30 sec) in distilled water to remove the buffer salts, and air-dried. The autoradiographs are obtained by 2-4 days exposure on Biomax MR film. Optical density measurements are obtained in several brain regions with the NIH Image 1.63 image analysis system.

p11 mRNA = conditions: mice, 14 day treatment, once daily i.p., killed 1 hour after last injection
Procedure: For some experiments, brains from p11 KO mice and their wild-type counterparts are used. […] Animals are killed 1 hour after the last injection.
In situ hybridization probes are made by PCR amplification of nucleotides 1159-1420 of the coding sequence of the rat 5-HT1B receptor gene, nucleotides 1-293 of the coding sequence of the mouse or human p11 genes and nucleotides 1-287 of the coding sequence of the rat p11 gene, respectively. The different PCR fragments are subcloned into the pCRII-TOPO vector. With the exception of the studies on human tissue, 12-μm-thick cryostat sections are made for all studies. Sections are hybridized with [□^−35S]UTP-labeled riboprobe repared by in vitro transcription from cDNA corresponding to the rat 5-HT1B receptor gene or mouse, rat or human p11 gene as previously described (S5). After hybridization, the sections are exposed to Biomax MR film for 7 to 24 days and analyzed using the NIH Image 1.63 software. Unless indicated, analyses are made in the prelimbic/anterior cingulate cortex. Some sections are dipped into Ilford K5 emulsion for cellular analysis. After 8 weeks, the sections are developed, Nissl-stained and mounted.

AMPA receptors = assay: Electrophysiology, fEPSP/PS in nucleus accumbens slices, CNQX; set-up: species or system mice; conditions: 15 min after CNQX
Procedure: (§2) Male p11 KO and wild-type mice (4-7 weeks old) are decapitated under fluorothane anesthesia. Their brains are rapidly removed and coronal brain slices (400 μm thick), containing the nucleus accumbens, are prepared with a microslicer. Slices are incubated, for at least 1 h, at 32° C. in oxygenated (95% O2+5% CO2) artificial cerebrospinal fluid (aCSF) containing (in mM): 126 NaCl, 2.5 KCl, 1.2 NaH2PO4, 1.3 MgCl2, 2.4 CaCl2, 10 glucose and 26 NaHCO3, pH 7.4. Slices are transferred to a recording chamber mounted on an upright microscope and are continuously perfused with oxygenated aCSF at 28° C. Extracellular field potentials are recorded using a glass micropipette filled with aCSF positioned on the slice surface in the nucleus accumbens. Signals are amplified 500 times via an Axopatch 200B amplifier acquired at 10 kHz, filtered at 2 kHz and recorded on a Computer using acquisition and pClamp9 data analysis software. Synaptic responses are evoked with a concentric bipolar stimulating electrode placed near the recording electrode on the surface of the slice. […] Single stimuli (0.1 ms duration) are applied every 15 sec at an intensity yielding 50-70% maximal response as assessed by a stimulus/response curve established for each slice examined by measuring the amplitude of the field potential evoked by increasing stimulus intensities. […] Numerical values are expressed as means […]SEM. […]

5-HT1B receptor [1] = target: T2, 5-HT1B receptor (Mus musculus, UniProt P28334); assay: Quantitative receptor autoradiography, [125I]cyanopindolol binding and serotonin displacement; set-up: Cryostat sections (12 μm thick) are made from p11 KO and wild-type mice; from tissue; host or cells: mouse brain cryostat sections (globus pallidus, substantia nigra); wild-type, p11 KO and p11 transgenic mice; species or system mice
Procedure: Cryostat sections (12 μm thick) are made from p11 KO and wild-type mice. 5-HT1B receptors are detected by incubating the sections in 170 mM Tris/150 mM NaCl pH 7.4 (25° C.) containing the antagonist [^125I]cyanopindolol (0.3, 1, 3, 10, 30, 100 pM; 2200 Ci/mmol), 100 nM 8-OH-DPAT as a 5-HT1A blocker, and 30 μM isoproterenol, as β-adrenergic receptor blocker, for two hours (S9). Non-specific binding is determined by measurements in the presence of 100 μM serotonin. In displacement experiments, increasing concentrations of serotonin (0, 0.3, 1, 3, 10, 30, 100, 300, 1000, 10000 nM) are incubated with 10 pM [^125I]cyanopindolol as described above. […] At the end of all autoradiographic experiments, sections are rinsed 2×5 min in their corresponding cold binding buffers, dipped in distilled water at 4° C. and dried under cold air. The sections are apposed to Biomax MR films for 3-5 days ([^125I]cyanopindolol) or 4-10 weeks ([^3H]GR125743, [^3H]8-OHDPAT, ^3H]SCH23390, [^3H]raclopride) together with ^[125I] or [^3H] microscales. Optical density measurements are obtained in several brain regions with the NIH Image 1.63 image analysis system. Specific binding is calculated by digital subtraction of nonspecific labeling from total binding. Standard curves generated from [^3H] or [^125I] microscales are used to convert optical densities into femtomoles per milligram of protein. Data obtained from saturation and displacement experiments are analyzed using non-linear regression equations.

[2] = tested on: phospho-Thr202/Tyr204-ERK1/2; assay: Western blotting of phosphorylated ERK1/2 in primary cortical cultures; assay type: cell-based; conditions: primary cortical cultures from p11 KO mice, 10 μM, 15 minutes
Procedure: Cortices are removed from E18 mice generated from WT×WT or p11KO×p11KO breedings, trypsinized (0.25%), dissociated by trituration and plated onto poly-L-lysine (1 mg/ml) coated six-well plates. The cultures (500,000 cells/ml) are grown in medium containing DMEM with 5% fetal bovine serum, 4 mM L-glutamine, B-27 nutrient supplement, penicillin (5 U/ml), and streptomycin (5 μg/ml). After two weeks, the cultures are treated with vehicle, serotonin (10 μM) or anpirtoline (10 μM) for 15 minutes. At the end of the treatment, the drug-containing medium is removed, the wells rinsed in ice-cold PBS, the neurons removed by a cell scraper and frozen in liquid nitrogen. Frozen cell samples are sonicated in 1% SDS and boiled for 10 min. Small aliquots of the homogenate are retained for protein determination by the bicinchoninic acid protein assay method. Equal amounts of protein are processed by using 10% acrylamide gels, as described (S10). Immunoblotting is carried out with a phosphorylation-state-specific antibody against phospho-Thr202/Tyr204-ERK1/2 or an antibody that is not phosphorylation-state-specific against total ERK1/2. Antibody binding is detected by enhanced chemiluminescence and quantified by densitometry, using National Institutes of Health IMAGE 1.63 software. The level of the phosphorylated form of ERK1/2 is normalized to its total level. All data are presented as normalized levels.

phospho-Ser9-synapsin I = assay: Western blotting of phosphorylated synapsin I in brain slices; assay type: cell-based; conditions: striatal slices from p11 KO mice, 50 μM, 2 min
Procedure: Slices (300 μm) from the striatum are prepared from wild-type and p11 KO mice as described (S10). The slices are preincubated in Krebs buffer (118 mM NaCl/4.7 mM KCl/1.5 mM […]/1.2 mM KH2PO4/25 mM NaHCO3/11.7 mM glucose/1.3 mM CaCl2) at 30° C. under constant oxygenation (95% O2/5% CO2) for 60 min, with a change of buffer after […]. Slices are treated with vehicle or anpirtoline (50 μM) for 2 min. After drug treatment, the buffer is removed, the slices are rapidly frozen on dry ice, sonicated in 1% SDS and boiled for 10 min. Small aliquots of the homogenate are retained for protein determination by the bicinchoninic acid protein assay method. Equal amounts of protein are processed by using 10% acrylamide gels. Immunoblotting is carried out with a phosphorylation-state-specific rabbit polyclonal antibody against phospho-Ser9-synapsin I, a site that is phosphorylated by PKA and CamKII, or a rabbit polyclonal synapsin antibody that is not phosphorylation-state-specific. Antibody binding is detected by enhanced chemiluminescence and quantified by densitometry, using National Institutes of Health IMAGE 1.63 software. The level of the phosphorylated form of synapsin is normalized to its total level. All data are presented as normalized levels.

thigmotaxis = assay: Open-field analysis (thigmotaxis); assay type: in vivo; conditions: wild-type mice treated long-term with imipramine; anpirtoline 5 mg/kg i.p., 15 min postinjection
Procedure: Horizontal activities are measured for 30 minutes (results are analyzed every 5 min period) during daytime in a fully computerized, multicage, red and infrared-sensitive motion detection system. The peripheral activity values are divided […] by the total horizontal activity values to determine thigmotaxis. In experiments with anpirtoline (5 mg/kg, i.p.) animals are tested 15 min postinjection. Some anpirtolinetreated mice had received daily injections with imipramine (10 mg/kg, i.p.) for 4 weeks until the day before the experiment.

immobility = assay: Tail suspension test; assay type: in vivo; conditions: p11 KO mice compared with wild-type mice after acute treatment, 15 minutes postinjection
Procedure: The tail suspension test, a model of antidepressant-like activity, is carried out as described (S11) and is a modified version of that validated for C57B16 (S12) and NMRI mice (S13). Mice are individually suspended by the tail to a horizontal bar (distance from floor is 35 cm) using adhesive tape (distance from tip of tail is 2 cm). […] A 6-min test session is videotaped and scored by an observer who is unaware of the genotype. The parameter recorded is the number of seconds spent immobile. In experiments with anpirtoline (5 mg/kg) and imipramine (10 mg/kg), animals are tested 15 minutes postinjection.

5-HT1B receptor [3] = target: T2, 5-HT1B receptor; assay: [35S]GTPγS binding in response to 5-HT1B receptor stimulation; assay type: biochemical; set-up: Cryostat sections (12 μm thick) are made from p11 KO and wild-type mice; from tissue; host or cells: mouse brain cryostat sections (globus pallidus, substantia nigra); wild-type, p11 KO and p11 transgenic mice; conditions: p11 KO mice, 50 μM agonist
Procedure: as §1

p11 = p11 expression in PBMC of monkeys receiving fluoxetine; assay type: in vivo
5-HT1B receptor [4] = target: T3, 5-HT1B receptor (Homo sapiens, UniProt P28222); assay: cAMP measurements in COS 7 cells; assay type: cell-based
T3 construct: V5 (C); expressed in transfected cells; host or cells: COS 7
Procedure: COS 7 cells grown in DMEM medium are transfected with 5-HT1B receptors and/or p11. Thirty six hours later the cells are pretreated with theophylline (5 mM) and pargyline (10 μM) for 15 min. Vehicle or forskolin (10 μM) with or without serotonin (10 μM), is then added for another 15 minutes. At the end of the treatment, the drug-containing medium is removed, the wells rinsed in PBS and the cells harvested. cAMP formation is quantitated by a direct cAMP enzyme immunoassay kit according to the manufacturers instructions.

5-HT1B receptor [5] = target: T2, 5-HT1B receptor; assay: Electrophysiology, fEPSP/PS in nucleus accumbens slices, serotonin; conditions: slices from WT mice; serotonin 50 μM in the presence of 10 μM fluoxetine
Procedure: as §2

T2 sequence (P28334 whole entry): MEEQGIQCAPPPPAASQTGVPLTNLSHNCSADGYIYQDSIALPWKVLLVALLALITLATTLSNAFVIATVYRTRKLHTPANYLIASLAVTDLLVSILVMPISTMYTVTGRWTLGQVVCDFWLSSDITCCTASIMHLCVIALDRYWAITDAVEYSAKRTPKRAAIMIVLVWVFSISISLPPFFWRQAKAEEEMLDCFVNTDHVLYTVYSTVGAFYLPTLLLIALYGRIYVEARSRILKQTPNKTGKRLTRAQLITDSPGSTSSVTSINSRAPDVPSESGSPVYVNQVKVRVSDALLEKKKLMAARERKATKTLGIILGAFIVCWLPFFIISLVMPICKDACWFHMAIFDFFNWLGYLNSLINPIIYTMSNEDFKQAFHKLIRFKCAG
T3 sequence (P28222 whole entry): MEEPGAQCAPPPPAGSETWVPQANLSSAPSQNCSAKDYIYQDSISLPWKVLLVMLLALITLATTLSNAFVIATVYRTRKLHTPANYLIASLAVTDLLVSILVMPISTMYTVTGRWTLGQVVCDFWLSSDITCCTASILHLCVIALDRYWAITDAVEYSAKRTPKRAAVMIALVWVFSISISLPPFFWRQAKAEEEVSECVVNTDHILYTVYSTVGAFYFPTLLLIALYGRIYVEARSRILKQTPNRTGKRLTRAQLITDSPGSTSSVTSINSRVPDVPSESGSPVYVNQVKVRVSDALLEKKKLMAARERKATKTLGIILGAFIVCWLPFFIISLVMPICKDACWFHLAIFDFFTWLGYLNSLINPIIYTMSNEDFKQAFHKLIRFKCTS

Compound: CCCN(CCC)C1CCc2cccc(O)c2C1 (racemic) [8-OH-DPAT, (+/−)-8-hydroxy-2-(di-n-propylamino)tetralin]
- [35S]GTP-S binding (5-HT1A receptor; p11 KO mice): 5.0±2.0 optical density units
- [35S]GTP-S binding (5-HT1A receptor; wild-type mice): 6.0±2.1 optical density units

Compound: N[C@@H]1C[C@H]1c1ccccc1 (racemic) [tranylcypromine]
- p11 mRNA in the forebrain (p11 mRNA): upregulation of p11 mRNA

Compound: N#Cc1cc2c(cc1[N+](=O)[O-])=NC(=O)C(=O)N=2 [CNQX, 6-cyano-7-nitroquinoxaline-2,3-dione]
- f EPSP/population spike (PS) reduction compared with baseline (AMPA receptors; p11 KO mice): 81%
- f EPSP/population spike (PS) reduction compared with baseline (AMPA receptors; wild-type mice): 77%

Compound: CC(C)(C)NCC(O)COc1cccc2[nH]c(C#N)c([125I])c12 (centres unmarked) [[^125I]iodocyanopindolol]
- binding in substantia nigra pars reticulata (5-HT1B receptor [1]; p11 KO mice): 77.3±5.8 fmol/mg protein
- binding in substantia nigra pars reticulata (5-HT1B receptor [1]; wild-type mice): 98.8±6.2 fmol/mg protein

Compound: Clc1cccc(SC2CCNCC2)n1 [anpirtoline]
- down-regulation of phospho-Thr202/Tyr204-ERK1/2 levels [2]: loss of ability
- decrease of phospho-Ser9-synapsin I (phospho-Ser9-synapsin I): loss of ability
- thigmotaxis (thigmotaxis): significant reduction in thigmotaxis
- immobility in the tail suspension test (immobility): increased immobility
- ability to increase [35S]GTP-S binding in globus pallidus (5-HT1B receptor [3]): reduced ability

Compound: CNCCC(Oc1ccc(C(F)(F)F)cc1)c1ccccc1 (centres unmarked) [fluoxetine]
- increase in p11 expression in peripheral blood mononuclear cells (PBMC) (p11): more than twofold

Compound: O=C(CCCN1CCC(O)(c2ccc(Cl)cc2)CC1)c1ccc(F)cc1 [haloperidol]
- p11 mRNA in the forebrain (p11 mRNA): not

Compound: CN(C)CCCN1c2ccccc2CCc2ccccc21 [imipramine]
- immobility in the tail suspension test (immobility): increased immobility
- p11 mRNA in the forebrain (p11 mRNA): upregulation of p11 mRNA

Compound: Cc1nc2n(c(=O)c1CCN1CCC(c3noc4cc(F)ccc34)CC1)CCCC2 [risperidone]
- p11 mRNA in the forebrain (p11 mRNA): not

Compound: NCCc1c[nH]c2ccc(O)cc12 [serotonin, 5-hydroxy-tryptamine]
- ability to counteract forskolin-induced cAMP formation (5-HT1B receptor [4]; COS-7 cells transfected with the 5-HT1B receptor, in the presence of cotransfected p11, serotonin (10 µM)): increased
- cAMP formation in untransfected COS 7 cells (5-HT1B receptor [4]; control experiments, untransfected cells): does not alter cAMP formation
- down-regulation of phospho-Thr202/Tyr204-ERK1/2 levels [2]: loss of ability
- EC50 (5-HT1B receptor [1]): 52 nM
- EC50 (5-HT1B receptor [1]; median effective concentration (EC50) to displace bound [125I]iodocyanopindolol, wild-type mice, brain sections): 57 nM
- amplitude of the fEPSP/PS (5-HT1B receptor [5]): depresses the amplitude
